Here are results for 46 molecules from patent US20220289727A1, “ENZYME INHIBITORS” (KALVISTA PHARMACEUTICALS LIMITED, priority 2019, published 2022).

The structures appear in SMILES notation.

In one assay the target is T1, Human Factor XIIa (Homo sapiens, UniProt P00748).
T1 construct: Human Factor XIIa (Enzyme Research Laboratories) was incubated; purchased Enzyme Research Laboratories
T1 sequence (P00748 373-615 limits assumed): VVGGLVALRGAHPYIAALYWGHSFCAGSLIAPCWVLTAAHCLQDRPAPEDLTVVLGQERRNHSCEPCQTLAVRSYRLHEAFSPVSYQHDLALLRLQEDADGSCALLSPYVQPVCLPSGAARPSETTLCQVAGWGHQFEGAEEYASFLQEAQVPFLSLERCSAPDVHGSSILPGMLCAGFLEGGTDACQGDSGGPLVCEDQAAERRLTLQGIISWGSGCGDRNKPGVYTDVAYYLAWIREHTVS
T1 sequence (P00748 20-372 partner limits assumed): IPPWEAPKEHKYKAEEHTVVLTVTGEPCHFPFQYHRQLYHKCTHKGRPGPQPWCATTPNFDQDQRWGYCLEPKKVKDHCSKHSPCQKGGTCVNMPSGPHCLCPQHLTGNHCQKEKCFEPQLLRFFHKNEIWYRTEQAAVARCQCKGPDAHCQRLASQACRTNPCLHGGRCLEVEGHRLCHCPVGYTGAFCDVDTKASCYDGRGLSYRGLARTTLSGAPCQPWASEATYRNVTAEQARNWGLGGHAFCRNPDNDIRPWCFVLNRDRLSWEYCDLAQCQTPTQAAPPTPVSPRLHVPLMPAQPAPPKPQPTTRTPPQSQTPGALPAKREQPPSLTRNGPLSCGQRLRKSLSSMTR
Kind of assay: Determination of FXIIa inhibitory activity in vitro (fluorogenic substrate H-DPro-Phe-Arg-AFC). It is filed as biochemical. The following applies: 25° C., residual enzyme activity (initial rate).

The target in the next assay is T2, Human FXIa (Homo sapiens, UniProt P03951).
T2 construct: Human FXIa (Enzyme Research Laboratories) was incubated; purchased Enzyme Research Laboratories
As to the kind of experiment: Determination of FXIa inhibitory activity in vitro (fluorogenic substrate Z-Gly-Pro-Arg-AFC). It is filed as biochemical. Particulars: selectivity, 25° C., residual enzyme activity (initial rate).

T2 sequence (P03951 388-625 limits assumed): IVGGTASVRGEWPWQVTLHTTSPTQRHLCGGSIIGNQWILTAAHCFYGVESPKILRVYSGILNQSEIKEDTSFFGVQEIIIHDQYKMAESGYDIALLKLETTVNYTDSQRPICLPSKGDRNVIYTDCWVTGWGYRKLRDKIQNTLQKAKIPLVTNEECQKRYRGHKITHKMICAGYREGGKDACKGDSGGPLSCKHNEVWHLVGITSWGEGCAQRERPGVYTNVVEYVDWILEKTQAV
T2 sequence (P03951 19-387 partner limits assumed): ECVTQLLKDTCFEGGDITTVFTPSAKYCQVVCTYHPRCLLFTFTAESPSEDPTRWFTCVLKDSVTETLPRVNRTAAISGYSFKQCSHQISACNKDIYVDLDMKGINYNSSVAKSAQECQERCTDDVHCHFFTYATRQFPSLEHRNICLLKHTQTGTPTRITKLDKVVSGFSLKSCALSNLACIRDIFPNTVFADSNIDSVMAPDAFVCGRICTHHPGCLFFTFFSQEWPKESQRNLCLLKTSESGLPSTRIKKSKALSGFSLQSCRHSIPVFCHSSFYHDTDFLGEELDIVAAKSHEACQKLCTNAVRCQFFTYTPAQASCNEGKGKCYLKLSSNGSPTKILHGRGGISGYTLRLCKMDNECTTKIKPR

A word on the IC50: it is the concentration that gives 50% inhibition. Consider `Nc1nccc2cc(CNC(=O)c3cc(Cl)c(CNCC4CCN(c5ccncc5)CC4)s3)ccc12` [Example 2.36, N-[(1-Aminoisoquinolin-6-yl)methyl]-4-chloro-5-[({[1-(pyridin-4-yl)piperidin-4-yl]methyl}amino)methyl]thiophene-2-carboxamide], for which the IC50 on Human Factor XIIa was 1 to 3 µM; at Human FXIa, 76.4 µM.
Turning to `Nc1nccc2cc(CNC(=O)c3cc(Cl)c(CNCc4ccc(N5CCCC5=O)cc4)s3)ccc12` [Example 2.58], the values for the IC50 on Human Factor XIIa and against Human FXIa were 3 to 10 µM and > 40 µM, respectively.
For `Nc1nccc2cc(CNC(=O)c3cc(Cl)c(CN4CCN(c5ccncc5)CC4)s3)ccc12` [Example 5.12], the IC50 is 3 to 10 µM at Human Factor XIIa and > 40 µM at Human FXIa.
Take `Nc1nccc2cc(CNC(=O)c3cc(Cl)c(CN4CCN(c5cccnc5)CC4)s3)ccc12` [Example 5.16]: the IC50 against Human Factor XIIa is 3 to 10 µM; on Human FXIa, > 40 µM.
Regarding `Nc1nccc2cc(CNC(=O)c3cc(Cl)c(CN4CCN(c5ccccn5)CC4)s3)ccc12` [Example 5.17], the values for the half-maximal inhibitory concentration (IC50) against Human Factor XIIa and at Human FXIa were 10 to 40 µM and > 40 µM, respectively.
On to `Nc1nccc2cc(CNC(=O)c3cc(Cl)c(CN4CC[C@@H](Nc5cccnc5)C4)s3)ccc12` [Example 5.18, N-[(1-Amino-6-isoquinolyl)methyl]-4-chloro-5-[[(3R)-3-(3-pyridylamino)pyrrolidin-1-yl]methyl]thiophene-2-carboxamide], for which the values for the IC50 against Human Factor XIIa and at Human FXIa were 10 to 40 µM and 37.7 µM, respectively.
Consider `Nc1nccc2cc(CNC(=O)c3cc(Cl)c(CN4Cc5ccncc5C4)s3)ccc12` [Example 5.19], for which the IC50 is 3 to 10 µM on Human Factor XIIa and 29.3 µM on Human FXIa.
In the case of `Cc1cc(C(=O)NCc2ccc3c(N)nccc3c2)sc1CN1CCN(c2ccncc2)CC1` [Example 5.20, N-[(1-Amino-6-isoquinolyl)methyl]-4-methyl-5-[[4-(4-pyridyl)piperazin-1-yl]methyl]thiophene-2-carboxamide], the IC50 against Human Factor XIIa was 10 to 40 µM; against Human FXIa it was > 40 µM.
The like results for `Nc1nccc2cc(CNC(=O)c3cc(Cl)c(CN4CC[C@H](Nc5cccnc5)C4)s3)ccc12` [Example 5.21] were, in that order, 10 to 40 µM and > 40 µM.
Take `Nc1nccc2cc(CNC(=O)c3cc(Cl)c(CN4CCc5ccncc5C4)s3)ccc12` [Example 5.22]: the IC50 at Human Factor XIIa was 3 to 10 µM; at Human FXIa it was > 40 µM.
Turning to `Nc1nccc2c1CC[C@H]2NC(=O)c1cc(Cl)c(CN2CCN(c3ccncc3)CC2)s1` [Example 5.23, N-[(5R)-1-Amino-6,7-dihydro-5H-cyclopenta[c]pyridin-5-yl]-4-chloro-5-[[4-(4-pyridyl)piperazin-1-yl]methyl]thiophene-2-carboxamide], the IC50 against Human Factor XIIa was 10 to 40 µM; on Human FXIa, 8.35 µM.
The like results for `Cc1cc(C(=O)NCc2ccc3c(N)nccc3c2)sc1CN1CCCN(c2ccncc2)CC1` [Example 5.24, N-((1-Aminoisoquinolin-6-yl)methyl)-4-methyl-5-((4-(pyridin-4-yl)-1,4-diazepan-1-yl)methyl) thiophene-2-carboxamide] were, in that order, 3 to 10 µM and > 40 µM.
The like results for `Cc1cc(C(=O)NCc2ccc3c(N)nccc3c2)sc1CN1CC(Oc2ccncc2)C1` [Example 5.25, N-[(1-Amino-6-isoquinolyl)methyl]-4-methyl-5-[[3-(4-pyridyloxy)azetidin-1-yl]methyl]thiophene-2-carboxamide] were, in that order, 10 to 40 µM and > 40 µM.
In the case of `Cc1cc(C(=O)NCc2ccc3c(N)nccc3c2)sc1CN1CCN(c2ccncn2)CC1` [Example 5.26, N-((1-Aminoisoquinolin-6-yl)methyl)-4-methyl-5-((4-(pyrimidin-4-yl)piperazin-1-yl)methyl) thiophene-2-carboxamide], the IC50 is 10 to 40 µM against Human Factor XIIa and > 40 µM against Human FXIa.
The like results for `Cc1cc(C(=O)NCc2ccc3c(N)nccc3c2)sc1CN1CCN(c2ccn(C)c(=O)c2)CC1` [Example 5.27] were, in that order, 10 to 40 µM and > 40 µM.
`Nc1nccc2cc(CNC(=O)c3cc(Cl)c(Cc4ccccc4O)s3)ccc12` [Example 25.05]: the IC50 against Human Factor XIIa lay in the range of 10 to 40 µM.
For `COc1ccc(O)c(Cc2sc(C(=O)NCc3ccc4c(N)nccc4c3)cc2Cl)c1` [Example 25.06], the IC50 at Human Factor XIIa lay within 10 to 40 µM.
At Human Factor XIIa, `CN1CCC(CCc2sc(C(=O)NCc3ccc4c(N)nccc4c3)cc2Cl)CC1` [Example 25.11] yielded an IC50 of 1 to 3 µM.
With `CN1CCC(CCc2csc(C(=O)NCc3ccc4c(N)nccc4c3)c2)CC1` [Example 25.12], on Human Factor XIIa, the half-inhibitory concentration (IC50) lay in the range of 3 to 10 µM.
Consider `Nc1nccc2cc(CNC(=O)c3cc(Br)cs3)ccc12` [Example 25.13], for which the IC50 at Human Factor XIIa was 3 to 10 µM.
On the same count and under the same terms, for `Nc1nccc2cc(CNC(=O)c3nc(CCC4CCNCC4)cs3)ccc12` [Example 25.14] the value was 1 to 3 µM; for `CN1CCC(CCc2csc(C(=O)NCc3ccc4c(N)nccc4c3)n2)CC1` [Example 25.15, N-((1-Aminoisoquinolin-6-yl)methyl)-4-(2-(1-methylpiperidin-4-yl)ethyl)thiazole-2-carboxamide], < 1 µM; for `CN1CCC(Nc2csc(C(=O)NCc3ccc4c(N)nccc4c3)c2)CC1` [Example 25.16], 10 to 40 µM.
Turning to `CN1CCC(CNc2csc(C(=O)NCc3ccc4c(N)nccc4c3)c2)CC1` [Example 25.17], the IC50 against Human Factor XIIa is 10 to 40 µM.
In the case of `Cc1nc2[nH]ccc2c(C)c1CNC(=O)c1cc(Cl)c(C)s1` [Example 25.101, 4-Chloro-N-((4,6-dimethyl-1H-pyrrolo[2,3-b]pyridin-5-yl)methyl)-5-methylthiophene-2-carboxamide], on Human Factor XIIa, the IC50 was in the range of 10 to 40 µM.
Same read-out and setting: with `Cc1sc(C(=O)NCc2cc3c(N)nccc3s2)cc1Cl` [Example 25.103, N-((4-aminothieno[3,2-c]pyridin-2-yl)methyl)-4-chloro-5-methylthiophene-2-carboxamide] the figure was 10 to 40 µM; with `Cc1sc(C(=O)NCc2ccc3c(N)nccc3c2F)cc1Cl` [Example 25.104, N-((1-Amino-5-fluoroisoquinolin-6-yl)methyl)-4-chloro-5-methylthiophene-2-carboxamide], 10 to 40 µM.
The same measure, in the same setting: for `Cc1cc(N)nc(C)c1CNC(=O)c1cc(Cl)c(C)s1` [Example 25.105, N-[(6-Amino-2,4-dimethylpyridin-3-yl)methyl]-4-chloro-5-methylthiophene-2-carboxamide] the value was 40 to 70 µM; for `Nc1nccc2cc(CNC(=O)c3cc4cccc(Cl)c4s3)ccc12` [Example 25.204], 10 to 40 µM.
For `Nc1nccc2cc(CNC(=O)c3cc4cc(F)ccc4s3)ccc12` [Example 25.205], the IC50 on Human Factor XIIa lay within 3 to 10 µM.
For the molecule `Nc1nccc2cc(CNC(=O)c3cc4c(F)cccc4s3)ccc12` [Example 25.206], the IC50 at Human Factor XIIa is 10 to 40 µM.
On the same count and under the same terms, for `CN1CCC(Nc2cccc3sc(C(=O)NCc4ccc5c(N)nccc5c4)cc23)CC1` [Example 25.208] the value was 3 to 10 µM.
On the same count and under the same terms, with `CN1CCC(CNc2cccc3sc(C(=O)NCc4ccc5c(N)nccc5c4)cc23)CC1` [Example 25.209] the figure was 3 to 10 µM; with `Cc1sc(C(=O)NCc2ccc3c(N)nccc3c2)c(NCC2CCN(C)CC2)c1C` [Example 26.11], 3 to 10 µM.
For `Cc1cc(CCC2CCN(C)CC2)c(C(=O)NCc2ccc3c(N)nccc3c2)s1` [Example 26.12], the IC50 on Human Factor XIIa was in the range of 3 to 10 µM.
As for `CN1CCC(CNc2ccsc2C(=O)NCc2ccc3c(N)nccc3c2)CC1` [Example 26.13], the IC50 on Human Factor XIIa lay in the range of 3 to 10 µM.
Still for that read-out and setting: for `Cc1nsc(C(=O)NCc2ccc3c(N)nccc3c2)c1NCC1CCNCC1` [Example 26.14] the value was 10 to 40 µM; for `Cc1nsc(C(=O)NCc2ccc3c(N)nccc3c2)c1NCC1CCN(C)CC1` [Example 26.15], 3 to 10 µM.
`CN1CCC(CNc2ncsc2C(=O)NCc2ccc3c(N)nccc3c2)CC1` [Example 26.16, N-((1-Aminoisoquinolin-6-yl)methyl)-4-(((1-methylpiperidin-4-yl)methyl)amino)thiazole-5-carboxamide] had an IC50 against Human Factor XIIa of 1 to 3 µM.
Same read-out and setting: for `CN1CCC(CCCn2nccc2C(=O)NCc2ccc3c(N)nccc3c2)CC1` [Example 35.08] the value was 1 to 3 µM.
Same read-out and setting: with `CCOc1ccc(Cn2nccc2C(=O)NCc2ccc3c(N)nccc3c2)cc1` [Example 35.09] the figure was 10 to 40 µM; with `CN1CCC(CCn2nccc2C(=O)NCc2cc3c(N)nccc3s2)CC1` [Example 46.01, N-((4-aminothieno[3,2-c]pyridin-2-yl)methyl)-1-(2-(1-methylpiperidin-4-yl)ethyl)-1H-pyrazole-5-carboxamide], 10 to 40 µM.
On the same count and under the same terms, for `Cc1c(C(=O)NCc2ccc3c(N)nccc3c2)cc(-c2ccccc2)n1CCCN1CCOCC1` [Example 51.01] the value was 10 to 40 µM; for `CN1CCC(CCn2ccc(C(=O)NCc3ccc4c(N)nccc4c3)n2)CC1` [Example 51.06], 1 to 3 µM; for `CN1CCC(CCCn2ccc(C(=O)NCc3ccc4c(N)nccc4c3)n2)CC1` [Example 51.07], 1 to 3 µM.
On to `CC(=O)N1CCC(CCn2ccc(C(=O)NCc3ccc4c(N)nccc4c3)n2)CC1` [Example 51.08], for which, on Human Factor XIIa, the IC50 was in the range of 10 to 40 µM.
